Data on one compound can be found in publication PMC11100219, “Dual-function antimicrobial-antibiofilm peptide hybrid to tackle biofilm-forming Staphylococcus epidermidis” (Annals of Clinical Microbiology and Antimicrobials, 2024).

Test [1] relates to S. epidermidis biofilm matrix. Kind of test: Confocal laser scanning microscopy of biofilm formation (AAA model). In kind it is cell-based, Staphylococcus epidermidis. The settings on record: at MBIC50 (7.81 µg/mL), 24 h; p-value < 0.001. The method, then:
An Amsterdam active attachment (AAA) model was used to assess the effectiveness of BiF2_5K7K to inhibit biofilm formation as previously described. In a 24-well microplate, various concentrations of BiF2_5K7K were incubated overnight with 10^7 CFU/mL of S. epidermidis. The plate was then covered with a sanitary stainless-steel lid containing double-glass coverslips. Following 24 h of incubation at 37°C, the biofilms were washed, and then […] green Alexa-ConA (Sigma-Aldrich, USA) was applied for 30 min to stain the biofilms. After staining, biofilms were fixed for 3 h with 2.5% glutaraldehyde. Biofilm images were acquired using a confocal laser scanning microscope (CLSM; Carl-Zeiss/LSM800, Zeiss, Germany). The fluorescence intensity of each test was analysed using ZEN 2.1 (blue edition) software.

Test [2] has as its system S. epidermidis biofilm cells. Kind of test: Biofilm cell viability, MTT assay. In kind it is cell-based, Staphylococcus epidermidis. The settings on record: 24 h. The method, then:
The biofilm cell viability after treated with hybrid peptide BiF2_5K7K was examined by 3-(4,5-Dimethylthiazol-2-yl)-2,5-Diphenyltetrazolium bromide or MTT colorimetric assays. Bacterial suspensions (10^6 CFU/mL in TSB) and peptide at concentration ranging from 0.98 to 250 µg/mL in 10 mM PBS were incubated in 96-well microtiter plates at 37°C for 24 h. After incubation, supernatant was discarded, followed by the addition of 0.4 mg/mL MTT (Sigma-Aldrich, USA) in 10 mM PBS to each well and incubated for 3 h at 37°C. Subsequently, supernatant was removed and dimethyl sulfoxide (DMSO; Fisher BioReagents™, UK) was added to dissolve the formed formazan crystals in wells. At a wavelength of 570 nm, the optical densities of the solutions were then determined by microplate reader.
In general terms: Tetrazolium dyes change colour on reduction, which living cells bring about.

Residues, ends and D or L forms follow the SMILES beside them.

Turning to `CC[C@H](C)[C@H](NC(=O)[C@H](CCCCN)NC(=O)[C@H](CCCCN)NC(=O)[C@@H](NC(=O)[C@H](CC(C)C)NC(=O)[C@@H](N)Cc1ccccc1)C(C)C)C(=O)N[C@@H](CCCCN)C(=O)N[C@@H](CCCCN)C(=O)N[C@H](C(=O)N[C@@H](CC(C)C)C(=O)N[C@@H](CCCNC(=N)N)C(=O)N[C@@H](CCCNC(=N)N)C(N)=O)[C@@H](C)CC` [BiF2_5K7K] (H-FLVKKIKKILRR-NH2; N-terminus assumed), in test [1], the “fluorescence intensity of Alexa Fluor 488 stained biofilm vs untreated control” value is “significantly lower”. For the same compound, the “viability of biofilm cells” value in test [2] (at MIC (15.63 µg/mL)) was “remained viable”; in test [2] (at higher concentrations (>15.63 µg/mL)), “no growth of biofilm cells”.
